Measurements taken from patent US10449208B2, “Antiviral prodrugs of tenofovir” (Merck Sharp & Dohme Corp., priority 2016, dated 2019).
Read-outs that look alike come from different tables or passages of the source.

Columns and labels:
[1] = Prodrug stability assay in bio-relevant media (FaSSIF with Pancreatin, simulated gastrointestinal tract conditions); assay type: in vitro ADME; conditions: % parent prodrug remaining at 5 h vs 0 h, 37° C., 0.5 mg/mL Pancreatin in FaSSIF, HPLC area ratio
Protocol: Prodrug Stability Assay in Bio-Relevant Media
The following assay was employed to evaluate the stability of the prodrugs in simulated gastrointestinal tract conditions. Preparation of fasted state simulated intestinal fluid (FaSSIF) using Phares SIF Powder was carried out according to protocols from Phare Drug Delivery AG (Baselland, Switzerland). For sample preparation, 10 μL stock solutions (10 mM) of prodrug substance in DMSO was added to 990 μL of 0.5 mg/mL Pancreatin solution (Fisher CAS#8049-47-6) in FaSSIF. Two samples were prepared for each compound at initial. If the sample was clear solution at the beginning, ran one sample directly as initial by HPLC; if the sample was not clear at starting, diluted the sample by 100% ACN. Put the other sample under 37° C. and observed the sample at 5 h time-point. At 5 h time point, if the sample was clear solution then performed HPLC analysis directly; if it was not clear solution, diluted the sample by 100% ACN and assayed by HPLC. All the samples were vortexed for 3 min and observed before injection. For the diluted samples, the area will be multiplied by a factor when data analysis. The analysis was carried out with an Agilent 1100 series HPLC with autosampler. The column was usually a Poroshell 120 EC -C18, 4.6×50 mm, 2.7 μm. The flow rate was 1.8 mL/min, and the injection volume was 5 or 10 μL. UV detection was in the range 210-400 nm. The mobile phase consisted of solvent A (water plus 10 mM tetrabutylammonium bromide) and solvent B (acetonitrile) with a gradient of 90% solvent A at 0 min changing to 95% solvent B over 6 min, maintained for 1.5 min, then reverting to 90% solvent A over 1.6 min. The area of the parent in prodrug at 5h time point was divided by the area of the parent in prodrug at 0 h time point, to generate the % claimed parent ratio, which are summarized in Table 2 for GI Tract stability.

HIV-1 (H9/IIIB strain) = assay: Multiple round HIV-1 infection assay (Viking assay) in MT4-GFP cells; assay type: cell-based; conditions: MT4-GFP cells infected with HIV-1 H9/IIIB, inhibition of reproductive ratio R0
Protocol: Assessing Antiviral Potency in a Multiple Round HIV-1 Infection Assay (Viking Assay)
The antiviral activity of the tenofovir prodrugs of the Examples herein was assessed in an assay that measures the rate of replication of HIV in cell culture, termed the Viking assay (Viral KINetics in Green cells) and performed as follows. HIV-1 replication was monitored using MT4-gag-GFP clone D3 (hereafter designated MT4-GFP), which are MT-4 cells modified to harbor a GFP reporter gene, the expression of which is dependent on the HIV-1 expressed proteins tat and rev. Productive infection of an MT4-GFP cell with HIV-1 results in GFP expression approximately 24 h post-infection. MT4-GFP cells were maintained at 37° C./5% CO2/90% relative humidity in RPMI 1640 supplemented with 10% fetal bovine serum, 100 μ/ml penicillin/streptomycin, and 400 μg/ml G418 to maintain the reporter gene. For infections, MT4-GFP cells were placed in the same medium lacking G418 and infected overnight with HIV-1 (H9/IIIB strain) virus at an approximate multiplicity of infection of 0.01 in the same incubation conditions. Cells were then washed and re-suspended in either RPMI 1640 supplemented with 10% or 50% normal human serum (NFIS) at 1.6×10^5 cells/mL (10% NHS or 50% NHS, respectively). Compound plates were prepared by dispensing compounds dissolved in DMSO into wells of 384 well poly-D -lysine-coated plates (0.2 μl/well) using an ECHO acoustic dispenser. Each compound was tested in a 10-point serial 3-fold dilution (typical final concentrations: 8.4 μM-0.42 nM). Controls included no inhibitor (DMSO only) and a combination of three antiviral agents (efavirenz, indinavir, an in-house integrase strand transfer inhibitor at final concentrations of 4 μM each). Cells were added (50 μL/well) to compound plates and the infected cells were maintained at 37° C./5% CO2/90% relative humidity.
infected cells were quantified at two time points, ˜48 h and ˜72 h post -infection, by counting the number of green cells in each well using an Acumen eX3 scanner. The increase in the number of green cells over ˜24 h period gives the reproductive ratio, R0, which is typically 5-15 and has been shown experimentally to be in logarithmic phase (data not shown). Inhibition of R0 is calculated for each well, and IC50s determined by non-linear 4-parameter curve fitting.

[2] = Human immunodeficiency virus 1, IIIB, 10% normal human serum, read-out: Viking, IC50 (10% NHS)
[3] = Human immunodeficiency virus 1, IIIB, 50% normal human serum, read-out: Viking, IC50 (50% NHS)
[4] = 10% normal human serum, read-out: Viking, IC50 (10% NHS)
[5] = 50% normal human serum, read-out: Viking, IC50 (50% NHS)

Structure (SMILES)	GI Tract stability [1] [%]	IC50 (HIV-1 (H9/IIIB strain); [2]) [nM]	IC50 (HIV-1 (H9/IIIB strain); [3]) [nM]	IC50 (HIV-1 (H9/IIIB strain); [4]) [nM]	IC50 (HIV-1 (H9/IIIB strain); [5]) [nM]
CCCCCOC(=O)COP(=O)(CO[C@H](C)Cn1cnc2c(N)ncnc21)NC(C)(C)C(=O)OC(C)C (single isomer, unassigned) [Example 8A]	94.11	–	–	6.76	27
CCCCCCOC(=O)C(C)(C)NP(=O)(CO[C@H](C)Cn1cnc2c(N)ncnc21)O[C@@H](C)C(=O)OC(C)C (single isomer, unassigned) [Example 7B]	76.64	–	–	0.37	1.01
CCCCCCOC(=O)C(C)(C)NP(=O)(CO[C@H](C)Cn1cnc2c(N)ncnc21)OCC(=O)OC(C)C (single isomer, unassigned) [Example 6A]	95.97	3.14	15.2	–	–
CCCCCOC(=O)C(C)(C)NP(=O)(CO[C@H](C)Cn1cnc2c(N)ncnc21)OCC(=O)OC(C)C (single isomer, unassigned) [Example 4A]	99.07	13.9	86.5	–	–
CCCCCCOC(=O)C(C)(C)NP(=O)(CO[C@H](C)Cn1cnc2c(N)ncnc21)O[C@@H](C)C(=O)OC(C)C (single isomer, unassigned) [Example 7A]	15.36	–	–	5.03	21
CCCCCOC(=O)C(C)(C)NP(=O)(CO[C@H](C)Cn1cnc2c(N)ncnc21)O[C@@H](C)C(=O)OC(C)C (single isomer, unassigned) [Example 2A]	61.61	–	–	4.05	22.1
CCCCCCOC(=O)C(C)(C)NP(=O)(CO[C@H](C)Cn1cnc2c(N)ncnc21)OCC(=O)OC(C)C (single isomer, unassigned) [Example 6B]	73.16	–	–	2.14	7.99
CC(C)OC(=O)[C@H](C)OP(=O)(CO[C@H](C)Cn1cnc2c(N)ncnc21)NC(C)(C)C(=O)OC(C)C (single isomer, unassigned) [Example 1B]	99.82	–	–	7.43	12.1
CCCCCCOC(=O)C(C)(C)NP(=O)(CO[C@H](C)Cn1cnc2c(N)ncnc21)O[C@H](C)C(=O)OC(C)C (single isomer, unassigned) [Example 9B]	6.16	–	–	1	2.78

Second part, led by results:

GI Tract stability [1] [%]	Structure (SMILES)	IC50 (HIV-1 (H9/IIIB strain); [2]) [nM]	IC50 (HIV-1 (H9/IIIB strain); [3]) [nM]	IC50 (HIV-1 (H9/IIIB strain); [4]) [nM]	IC50 (HIV-1 (H9/IIIB strain); [5]) [nM]
70.30	CC(C)OC(=O)C(C)(C)NP(=O)(CO[C@H](C)Cn1cnc2c(N)ncnc21)O[C@@H](C)C(=O)OC1CCCC1 (single isomer, unassigned) [Example 13A]	6.17	51.1	–	–
99.36	CCCOC(=O)C(C)(C)NP(=O)(CO[C@H](C)Cn1cnc2c(N)ncnc21)OCC(=O)OC(C)C (stereo partly drawn) [Example 21, Propyl 2-((((((R)-1-(6-amino-9H-purin-9-yl)propan-2-yl)oxy)methyl)(2-isopropoxy-2-oxoethoxy)phosphoryl)amino)-2-methylpropanoate]	6.15	12	–	–
99.32	CC(C)OC(=O)COP(=O)(CO[C@H](C)Cn1cnc2c(N)ncnc21)NC(C)(C)C(=O)OC1CCC1 (single isomer, unassigned) [Example 17B]	–	–	6.7	18.4
93.55	CC(C)OC(=O)[C@H](C)OP(=O)(CO[C@H](C)Cn1cnc2c(N)ncnc21)NC1(C(=O)OC(C)C)CC1 (stereo partly drawn) [Example 47, Isopropyl 1-((((((R)-1-(6-amino-9H-purin-9-yl)propan-2-yl)oxy)methyl)(((S)-1-isopropoxy-1-oxopropan-2-yl)oxy)phosphoryl)amino) cyclopropane-1-carboxylate]	91.6	209	–	–
85.48	CC(C)COC(=O)C(C)(C)NP(=O)(CO[C@H](C)Cn1cnc2c(N)ncnc21)O[C@@H](C)C(=O)OC(C)C (stereo partly drawn) [Example 31, Isobutyl 2-((((((R)-1-(6-amino-9H-purin-9-yl)propan-2-yl)oxy)methyl)(((S)-1-isopropoxy-1-oxopropan-2-yl)oxy)phosphoryl)amino)-2-methylpropanoate]	2.39	7.57	–	–
98.18	CC(C)OC(=O)COP(=O)(CO[C@H](C)Cn1cnc2c(N)ncnc21)NC1(C(=O)OC(C)C)CC1 (stereo partly drawn) [Example 46, Isopropyl 1-((((((R)-1-(6-amino-9H-purin-9-yl)propan-2-yl)oxy)methyl)(2-isopropoxy-2-oxoethoxy)phosphoryl)amino) cyclopropane-1-carboxylate]	386	703	–	–
58.50	CC(C)OC(=O)[C@H](C)OP(=O)(CO[C@H](C)Cn1cnc2c(N)ncnc21)NC(C)(C)C(=O)OCc1ccccc1 (stereo partly drawn) [Example 41, Benzyl 2-((((((R)-1-(6-amino-9H-purin-9-yl)propan-2-yl)oxy)methyl)(((S)-1-isopropoxy-1-oxopropan-2-yl)oxy)phosphoryl)amino)-2-methylpropanoate]	2.87	12.5	–	–
88.87	CCCCCOC(=O)C(C)(C)NP(=O)(CO[C@H](C)Cn1cnc2c(N)ncnc21)OCC(=O)OC1CCCC1 (stereo partly drawn) [Example 36, Pentyl 2-((((((R)-1-(6-amino-9H-purin-9-yl)propan-2-yl)oxy)methyl)(2-(cyclopentyloxy)-2-oxoethoxy)phosphoryl)amino)-2-methylpropanoate]	2.39	6.04	–	–
96.64	CCCOC(=O)C(C)(C)NP(=O)(CO[C@H](C)Cn1cnc2c(N)ncnc21)OCC(=O)OC1CCCC1 (stereo partly drawn) [Example 38, Propyl 2-((((((R)-1-(6-amino-9H-purin-9-yl)propan-2-yl)oxy)methyl)(2-(cyclopentyloxy)-2-oxoethoxy)phosphoryl)amino)-2-methylpropanoate]	2.68	6.26	–	–
91.31	CC(C)OC(=O)[C@H](C)OP(=O)(CO[C@H](C)Cn1cnc2c(N)ncnc21)NC(C)(C)C(=O)OC1CCCC1 (single isomer, unassigned) [Example 18B]	–	–	2.69	8.77
98.95	CC(C)OC(=O)[C@H](C)OP(=O)(CO[C@H](C)Cn1cnc2c(N)ncnc21)NC(C)(C)C(=O)OC1CCCCC1 (single isomer, unassigned) [Example 12A]	5.71	25.2	–	–
100.50	CC(C)OC(=O)COP(=O)(CO[C@H](C)Cn1cnc2c(N)ncnc21)NC1(C(=O)OC(C)C)CCC1 (stereo partly drawn) [Example 49, Isopropyl 1-((((((R)-1-(6-amino-9H-purin-9-yl)propan-2-yl)oxy)methyl)(2-isopropoxy-2-oxoethoxy)phosphoryl)amino) cyclobutane-1-carboxylate]	19.6	37	–	–
